Reference: BindingDB's records for doi:10.1016/s0960-894x(98)00264-9 (Royal Danish School of Pharmacy, 1999)

How the values were obtained:
[1] = Compound was evaluated for agonistic activity against mGluR4a alpha metabotropic receptor subtype in rat cortical slice model
[2] = Compound was evaluated for agonistic activity against mGluR2 alpha metabotropic receptor subtype in rat cortical slice model

Compound | EC50 [1] | EC50 [2]
CCNC(C(=O)O)c1cc(=O)[nH]o1 (stereo unspecified) [Ethylamino-(3-hydroxy-isoxazol-5-yl)-acetic acid] | > 1000 µM | > 1000 µM
O=C(O)C(NCc1ccccc1)c1cc(=O)[nH]o1 (stereo unspecified) [Benzylamino-(3-hydroxy-isoxazol-5-yl)-acetic acid] | > 1000 µM | > 1000 µM
CNC(C(=O)O)c1cc(=O)[nH]o1 (stereo unspecified) [(3-Hydroxy-isoxazol-5-yl)-methylamino-acetic acid] | > 1000 µM | > 1000 µM
